Broadly, the IC50 is the midpoint of a concentration-inhibition curve.

Experimental findings from patent US12180207B2 (ARRAY BIOPHARMA INC., priority 2018, dated 2024) are described below.

Assay [1] has as its target dephosphorylated FGFR1 (SEQ ID NO: 1, amino acids 458 to 765) (Homo sapiens (Human), UniProt P11362). Put plainly: FGFR enzyme binding assay (HTRF tracer displacement), FGFR1. The settings on record: 5 nM dephosphorylated FGFR1, average of multiple determinations if made. Summed up: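 Kinase and tracer were incubated with compound for 60 minutes at 22° C. Tracer displacement was then measured by HTRF, and results were expressed as POC with 1 μM control inhibitor defining full displacement.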
On the technique in general: In TR-FRET formats the signal depends on donor and acceptor labels being close together.

Assay [2] deals with recombinant human FGFR1 catalytic domain (amino acids 308-731) (Homo sapiens (Human), UniProt P11362). Put plainly: FGFR1 enzyme activity assay (LanthaScreen TR-FRET). It counts as biochemical. The conditions noted are these: 20 min incubation at 22° C., average of multiple determinations if made, read-out: FGFR1 Enz FRET IC50. Summed up:
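His-tagged FGFR1 kinase domain with 100 nM Alexa Fluor 647-poly-GT peptide and ATP in pH 7.5 HEPES/MgCl2 buffer with 2% DMSO, 20 min at 22 °C. Quenched with EDTA plus 2 nM Eu-PY20 antibody and read after 60 min. IC50 comes from a 4-parameter fit of percent of control.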

Assay [3] deals with recombinant human FGFR2 cytoplasmic domain (amino acids 403-822) (Homo sapiens (Human), UniProt P21802). Put plainly: FGFR2 enzyme activity assay (LanthaScreen TR-FRET). Type of assay: biochemical. The settings on record: 15 μM ATP, 20 min incubation at 22° C., average of multiple determinations if made, read-out: FGFR2 Enz FRET IC50. A digest of the protocol: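 Substrate phosphorylation was read by TR-FRET using Eu-PY20 antibody (60 min, 22 °C) after a 20 min, 22 °C reaction. The reaction used 15 μM ATP, 100 nM fluorescent poly-GT peptide and His-tagged FGFR2 403-822 ([…]) at pH 7.5 with 2% DMSO.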

For assay [4], the target named is recombinant human FGFR3 (amino acids R397-T806) (Homo sapiens (Human), UniProt P22607). In words: FGFR3 enzyme activity assay (LanthaScreen TR-FRET). Type of assay: biochemical. The conditions noted are these: 25 μM ATP, 10 min incubation at 22° C., average of multiple determinations if made, read-out: FGFR3 Enz FRET IC50. A digest of the protocol:
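GST-HIS6-tagged human FGFR3 (R397-T806) was reacted with 100 nM Alexa Fluor 647-Poly-GT substrate and 25 μM ATP plus compound in HEPES/MgCl2/Triton buffer, pH 7.5, 2% DMSO, for 10 min at 22 °C.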

Assay [5] concerns the target FGFR1 (SEQ ID NO: 1, amino acids 458-765) (Homo sapiens (Human), UniProt P11362). In words: LC/MS FGFR1 kobs assay (covalent protein modification). Type of assay: binding. The conditions noted are these: 500 nM FGFR1, 3 μM compound. A digest of the protocol: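 Covalent labeling of FGFR1 kinase domain (aa 458-765) tracked over time by intact-protein LC/MS after formic acid quench. kobs derived by fitting DMSO-normalized percent unmodified FGFR1 to an exponential decay model.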

Chain of recombinant human FGFR1 catalytic domain (amino acids 308-731) (P11362 other isoform, or with tags, fused parts or gaps): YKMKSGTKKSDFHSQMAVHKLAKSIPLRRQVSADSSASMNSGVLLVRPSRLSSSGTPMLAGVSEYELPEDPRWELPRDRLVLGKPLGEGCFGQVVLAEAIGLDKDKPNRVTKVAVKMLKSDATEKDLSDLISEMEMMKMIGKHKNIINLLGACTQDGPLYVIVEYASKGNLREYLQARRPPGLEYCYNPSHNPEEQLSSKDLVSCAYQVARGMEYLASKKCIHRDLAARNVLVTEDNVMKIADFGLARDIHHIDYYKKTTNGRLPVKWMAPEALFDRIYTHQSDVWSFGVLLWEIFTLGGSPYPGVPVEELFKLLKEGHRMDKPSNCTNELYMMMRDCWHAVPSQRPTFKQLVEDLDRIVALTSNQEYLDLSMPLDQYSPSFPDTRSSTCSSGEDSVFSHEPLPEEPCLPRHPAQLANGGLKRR
Chain of FGFR1 (SEQ ID NO: 1, amino acids 458-765) (P11362 458-765): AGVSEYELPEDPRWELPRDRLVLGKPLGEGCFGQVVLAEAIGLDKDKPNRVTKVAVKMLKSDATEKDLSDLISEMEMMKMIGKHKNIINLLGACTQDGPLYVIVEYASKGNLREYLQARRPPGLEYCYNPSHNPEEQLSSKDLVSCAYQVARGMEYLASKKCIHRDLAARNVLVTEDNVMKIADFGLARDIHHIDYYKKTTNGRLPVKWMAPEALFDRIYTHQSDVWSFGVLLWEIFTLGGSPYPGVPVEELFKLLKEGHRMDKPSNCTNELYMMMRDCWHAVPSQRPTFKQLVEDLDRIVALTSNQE
Chain of dephosphorylated FGFR1 (SEQ ID NO: 1, amino acids 458 to 765) (P11362 458-765): as above
Chain of recombinant human FGFR3 (amino acids R397-T806) (P22607 397-806): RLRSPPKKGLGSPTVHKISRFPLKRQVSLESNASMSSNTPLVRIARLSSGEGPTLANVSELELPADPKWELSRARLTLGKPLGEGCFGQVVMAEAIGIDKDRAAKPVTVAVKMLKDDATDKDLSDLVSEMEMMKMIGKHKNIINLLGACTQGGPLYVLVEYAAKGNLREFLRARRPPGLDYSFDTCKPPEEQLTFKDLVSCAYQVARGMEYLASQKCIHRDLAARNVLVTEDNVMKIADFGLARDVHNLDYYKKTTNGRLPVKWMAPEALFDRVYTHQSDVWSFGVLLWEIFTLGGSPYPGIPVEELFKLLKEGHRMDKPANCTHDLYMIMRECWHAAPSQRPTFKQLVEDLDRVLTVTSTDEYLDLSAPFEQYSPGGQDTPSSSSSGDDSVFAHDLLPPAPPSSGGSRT
Chain of recombinant human FGFR2 cytoplasmic domain (amino acids 403-822) (P21802 402-821): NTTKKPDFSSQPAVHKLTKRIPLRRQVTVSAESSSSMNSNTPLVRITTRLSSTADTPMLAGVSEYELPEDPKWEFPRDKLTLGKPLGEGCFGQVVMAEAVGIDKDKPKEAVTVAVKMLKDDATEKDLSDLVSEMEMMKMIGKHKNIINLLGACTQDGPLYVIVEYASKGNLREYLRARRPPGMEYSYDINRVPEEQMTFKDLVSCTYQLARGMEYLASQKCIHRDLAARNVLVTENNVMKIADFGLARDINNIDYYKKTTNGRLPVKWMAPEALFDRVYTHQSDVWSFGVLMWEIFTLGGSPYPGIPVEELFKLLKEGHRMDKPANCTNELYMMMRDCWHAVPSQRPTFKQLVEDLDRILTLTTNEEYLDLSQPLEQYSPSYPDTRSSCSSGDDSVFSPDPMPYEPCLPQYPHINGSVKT

Take `C=CC(=O)N1CCC(F)(C(=O)N2CCC(n3cc(-c4cc(OC)c5c(C#N)cnn5c4)cn3)CC2)C1` (centres unmarked) [Example 30, 6-(1-(1-(1-acryloyl-3-fluoropyrrolidine-3-carbonyl)piperidin-4-yl)-1H-pyrazol-4-yl)-4-methoxypyrazolo[1,5-a]pyridine-3-carbonitrile]: the IC50 is 51 nM in assay [1], 9 nM in assay [2], 3 nM in assay [3] and 2 nM in assay [4]. In addition, in assay [5], the “FGFR1 Enz kobs” value was 0.00104 min⁻¹.

As for `C=CC(=O)N1CCC(C#N)(C(=O)N2CCC(n3cc(-c4cc(OC)c5c(C#N)cnn5c4)cn3)CC2)C1` (centres unmarked) [Example 31, 6-(1-(1-(1-acryloyl-3-cyanopyrrolidine-3-carbonyl)piperidin-4-yl)-1H-pyrazol-4-yl)-4-methoxypyrazolo[1,5-a]pyridine-3-carbonitrile], the IC50 in assay [1] turned out to be 26 nM; in assay [2], 8 nM; in assay [3], 2 nM; in assay [4], 2 nM. The “FGFR1 Enz kobs” value in assay [5] was 0.00146 min⁻¹.

In the case of `C=CC(=O)N1CC(F)(C(=O)N2CCC(n3cc(-c4cc(OC)c5c(C#N)cnn5c4)cn3)CC2)C1` [Example 37, 6-(1-(1-(1-acryloyl-3-fluoroazetidine-3-carbonyl)piperidin-4-yl)-1H-pyrazol-4-yl)-4-methoxypyrazolo[1,5-a]pyridine-3-carbonitrile], the half-inhibitory concentration (IC50) in assay [1] turned out to be 289 nM; in assay [2] it was 16 nM; in assay [3], 7 nM; in assay [4] it was 4 nM. Moreover, the “FGFR1 Enz kobs” value in assay [5] was found to be 0.00447 min⁻¹.

Consider `C=CC(=O)N1CC(C)(C(=O)N2CCC(n3cc(-c4cc(OC)c5c(C#N)cnn5c4)cn3)CC2)C1` [Example 38, 6-(1-(1-(1-acryloyl-3-methylazetidine-3-carbonyl)piperidin-4-yl)-1H-pyrazol-4-yl)-4-methoxypyrazolo[1,5-a]pyridine-3-carbonitrile], for which the IC50 worked out at 33 nM in assay [1], 10 nM in assay [2], 3 nM in assay [3] and 3 nM in assay [4]. Also, in assay [5], the “FGFR1 Enz kobs” value amounted to 0.00134 min⁻¹.

`C=CC(=O)N1CC(C#N)(C(=O)N2CCC(n3cc(-c4cc(OC)c5c(C#N)cnn5c4)cn3)CC2)C1` [Example 39, 6-(1-(1-(1-acryloyl-3-cyanoazetidine-3-carbonyl)piperidin-4-yl)-1H-pyrazol-4-yl)-4-methoxypyrazolo[1,5-a]pyridine-3-carbonitrile]: the IC50 in assay [1] was found to be 26 nM; in assay [2] it was 11 nM; in assay [3], 5 nM; in assay [4], 3 nM. Also, in assay [5], the “FGFR1 Enz kobs” value came out at 0.01019 min⁻¹.

As to `C=CC(=O)N1CC(CC)(C(=O)N2CCC(n3cc(-c4cc(OC)c5c(C#N)cnn5c4)cn3)CC2)C1` [Example 40, 6-(1-(1-(1-acryloyl-3-ethylazetidine-3-carbonyl)piperidin-4-yl)-1H-pyrazol-4-yl)-4-methoxypyrazolo[1,5-a]pyridine-3-carbonitrile], the IC50 in assay [1] worked out at 38 nM; in assay [2] it was 9 nM; in assay [3], 3 nM; in assay [4], 2 nM. Besides, in assay [5], the “FGFR1 Enz kobs” value was determined as 0.00138 min⁻¹.

For the compound `C=CC(=O)N1CC(OC)(C(=O)N2CCC(n3cc(-c4cc(OC)c5c(C#N)cnn5c4)cn3)CC2)C1` [Example 41, 6-(1-(1-(1-acryloyl-3-methoxyazetidine-3-carbonyl)piperidin-4-yl)-1H-pyrazol-4-yl)-4-methoxypyrazolo[1,5-a]pyridine-3-carbonitrile], the concentration for half-maximal inhibition (IC50) in assay [1] turned out to be 61 nM; in assay [2], 2 nM; in assay [3], 1 nM; in assay [4], 2 nM. In addition, in assay [5], the “FGFR1 Enz kobs” value amounted to 0.00254 min⁻¹.

As for `C=CC(=O)N1CC(C(=O)N2CCC(n3cc(-c4cc(OC)c5c(C#N)cnn5c4)cn3)CC2)C1C` (centres unmarked) [Example 42, 6-(1-(1-(1-acryloyl-2-methylazetidine-3-carbonyl)piperidin-4-yl)-1H-pyrazol-4-yl)-4-methoxypyrazolo[1,5-a]pyridine-3-carbonitrile], the IC50 in assay [1] worked out at 43 nM; in assay [2] it was 11 nM; in assay [3], 6 nM; in assay [4], 2 nM. Also, the “FGFR1 Enz kobs” value in assay [5] worked out at 0.00113 min⁻¹.

With `C=CC(=O)N1CC(C(=O)N2CCC(n3cc(-c4cc(OC)c5c(C#N)cnn5c4)cn3)CC2)C1(C)C` (centres unmarked) [Example 43, 6-(1-(1-(1-acryloyl-2,2-dimethylazetidine-3-carbonyl)piperidin-4-yl)-1H-pyrazol-4-yl)-4-methoxypyrazolo[1,5-a]pyridine-3-carbonitrile], the IC50 is 54 nM in assay [1], 6 nM in assay [2], 3 nM in assay [3] and 2 nM in assay [4]. The “FGFR1 Enz kobs” value in assay [5] worked out at 0.0005 min⁻¹.

In the case of `C=CC(=O)N1CC(C(=O)N2C3CCC2CN(c2ccc(-c4cc(OC)c5c(C#N)cnn5c4)cn2)C3)C1` [Example 50, 6-(6-(8-(1-acryloylazetidine-3-carbonyl)-3,8-diazabicyclo[3.2.1]octan-3-yl)pyridin-3-yl)-4-methoxypyrazolo[1,5-a]pyridine-3-carbonitrile], the half-inhibitory concentration (IC50) in assay [1] was 27 nM; in assay [2], 24 nM; in assay [3], 4 nM; in assay [4], 10 nM. The “FGFR1 Enz kobs” value in assay [5] came out at 0.00381 min⁻¹.

Turning to `C=CC(=O)N1CC(C(=O)N2CC3CCC(C2)N3c2ccc(-c3cc(OC)c4c(C#N)cnn4c3)cn2)C1` [Example 51, 6-(6-(3-(1-acryloylazetidine-3-carbonyl)-3,8-diazabicyclo[3.2.1]octan-8-yl)pyridin-3-yl)-4-methoxypyrazolo[1,5-a]pyridine-3-carbonitrile], the IC50 in assay [1] was 70 nM; in assay [2] it was 34 nM; in assay [3], 9 nM; in assay [4] it was 22 nM. Also, the “FGFR1 Enz kobs” value in assay [5] stood at 0.00338 min⁻¹.

Take `C=CC(=O)N1CC(C(=O)N2C3CC2CN(c2ccc(-c4cc(OC)c5c(C#N)cnn5c4)cn2)C3)C1` [Example 52, 6-(6-(6-(1-acryloylazetidine-3-carbonyl)-3,6-diazabicyclo[3.1.1]heptan-3-yl)pyridin-3-yl)-4-methoxypyrazolo[1,5-a]pyridine-3-carbonitrile]: the IC50 in assay [1] was found to be 86 nM; in assay [2], 66 nM; in assay [3] it was 14 nM; in assay [4], 34 nM. For the same compound, the “FGFR1 Enz kobs” value in assay [5] stood at 0.00086 min⁻¹.

Turning to `C=CC(=O)Nc1ccc(C(=O)N2CC[C@@H](n3cc(-c4cc(OC)c5c(C#N)cnn5c4)cn3)C2)cc1` [Example 55, (R)-N-(4-(3-(4-(3-cyano-4-methoxypyrazolo[1,5-a]pyridin-6-yl)-1H-pyrazol-1-yl)pyrrolidine-1-carbonyl)phenyl)acrylamide], the half-maximal inhibitory concentration (IC50) worked out at 98 nM in assay [1], 19 nM in assay [2], 5 nM in assay [3] and 9 nM in assay [4]. In assay [5], the “FGFR1 Enz kobs” value is 0.00277 min⁻¹.

With `C=CC(=O)Nc1cccc(C(=O)N2CC[C@@H](n3cc(-c4cc(OC)c5c(C#N)cnn5c4)cn3)C2)c1` [Example 56, (R)-N-(3-(3-(4-(3-cyano-4-methoxypyrazolo[1,5-a]pyridin-6-yl)-1H-pyrazol-1-yl)pyrrolidine-1-carbonyl)phenyl)acrylamide], the IC50 was 135 nM in assay [1], 28 nM in assay [2], 8 nM in assay [3] and 10 nM in assay [4]. The “FGFR1 Enz kobs” value in assay [5] worked out at 0.00181 min⁻¹.

For the compound `C=CC(=O)N1CC(C(=O)N2CC[C@@H](n3cc(-c4cc(OC)c5c(C#N)cnn5c4)cn3)C2)C1` [Example 59, (R)-6-(1-(1-(1-acryloylazetidine-3-carbonyl)pyrrolidin-3-yl)-1H-pyrazol-4-yl)-4-methoxypyrazolo[1,5-a]pyridine-3-carbonitrile], the IC50 was 115 nM in assay [1], 47 nM in assay [2], 16 nM in assay [3] and 16 nM in assay [4]. Further, the “FGFR1 Enz kobs” value in assay [5] was 0.00106 min⁻¹.

Regarding `C=CC(=O)Nc1ccc(C(=O)N2CC[C@H](n3cc(-c4cc(OC)c5c(C#N)cnn5c4)cn3)C2)cc1` [Example 66, (S)-N-(4-(3-(4-(3-cyano-4-methoxypyrazolo[1,5-a]pyridin-6-yl)-1H-pyrazol-1-yl)pyrrolidine-1-carbonyl)phenyl)acrylamide], the half-maximal inhibitory concentration (IC50) is 72 nM in assay [1], 16 nM in assay [2], 5 nM in assay [3] and 7 nM in assay [4]. For the same compound, in assay [5], the “FGFR1 Enz kobs” value was 0.00332 min⁻¹.
